Measurements as given in patent publication US20220290140A1, “TRANS-CYCLOOCTENE LABELED ANTISENSE OLIGONUCLEOTIDES, RADIO LABELED TETRAZINE AND METHODS” (Biogen MA Inc., priority 2019, published 2022).
Where two headings read alike, the source gives them in different places.

Columns and labels:
Microsome stability = type: in vitro ADME; conditions: microsomes; read-out: Microsome Stability t1/2
[1] = Static PET/CT of upper spine and CSF; type: in vivo, rat
Text: The static PET/CT images of ^18F-537-Tz uptake in the upper rat spine are illustrated in FIG. 12. […] There was a 10% and 15% increase in the radioactivity uptake in the spine and CSF when comparing the baseline and post ASO-TCO dosed rats (Table 4).

[2] = Plasma protein binding (PPB); type: in vitro ADME; conditions: rat, read-out: PPB (rat) unbound
Text: (§1) As pretargeting is a 2-component system, an ^18F-Tz was developed to be CNS-penetrant based on cnsPET-MPO modeling (Zhang, L., et al. (2018). J Med Chem 61(8): 3296-3308).

[3] = rat, in vivo, 1 mg/kg
Procedure: (§2) Dynamic PET scans were performed with arterial sampling to determine parent fraction of the tracer ^18F-537-Tz in baseline and pretargeted scans. Baseline imaging with a comparison to a homologous block with non-radioactive compound ^19F-537-Tz at 1 mg/kg was performed on a single rat, where non-radioactive compound was administered i.v. 5 min before injection of tracer. Next, three additional rats were imaged at baseline with no ASO-TCO administered. A final three rats received pretargeted scans and were dosed intrathecally with 0.56 mg Malat1 ASO-TCO in 30 μL saline followed by a 40 μL saline flush. 24 h after injection of the ASO, ^18F-537-Tz was injected intravenously and dynamic PET imaging performed.
A metabolite analysis method was developed to enable the tracer kinetic modelling using metabolite corrected plasma activity as an input function. The plasma radioactivity extraction efficiency for all samples was determined and was satisfactory using 1:1 plasma:ACN. The recovery from the HPLC column of the injected radioactivity was determined for each plasma extract injected. Good recovery of the injected radioactivity from the HPLC column was obtained for each plasma extract injection. For the 3 baseline scans, the parent compound fraction of the total activity found in plasma was 86-90% at 5 min, and this fraction decreased to 66-74% at 60 min after ^18F-537-Tz injection. […]

[4] = Parent fraction and blood kinetics of tracer in arterial plasma in NHP; type: in vivo, cynomolgus monkey
Procedure: (§3) Dynamic PET scans (0-120 min) with arterial input function were performed on a female cynomolgous monkey using ^18F-537-Tz (5.7±0.7 mCi, 0.14±0.12 μg) in order to evaluate the tracer's efficacy in non-human primates. Parent fraction of tracer in arterial plasma was determined by extracting tracer using acetonitrile and analysis by radioHPLC. Baseline scans were performed first, measuring tracer kinetics in the brain. Malat1 ASO-TCO (20 mg in 2.4 mL aCSF) was then injected intrathecally under fluoroscopic guidance and ^18F-537-Tz PET/CT imaging performed at 24 h and 168 h under isoflurane anesthesia. Imaging data were co-registered to a cyno brain atlas, and TAC in subregions of interest were derived from them. Static PET/CT scans were acquired in each imaging session, with the field of view (FOV) oriented to capture the spine. This scan took place 130-160 min p.i. of tracer, and an ROI drawn over the spinal cord with muscle as a reference region.

[5] = Dynamic PET/CT of brain in NHP, baseline and post Malat1 ASO-TCO; type: in vivo; conditions: cynomolgus monkey
Procedure: The pretargeting PET tracer ^18F-537-Tz was tested in a cynomolgus monkey, including baseline scans and a homologous blocking scan. The monkey was then dosed with Malat1 ASO-TCO and scanned again at 24 h and 168 h.
as §3

[6] = Pretargeted PET/CT imaging, ASO-TCO i.t. then 18F-Tz i.v.; type: in vivo, Sprague-Dawley rats
Procedure: Sprague-Dawley rats were administered ASO-TCO intrathecally (2.5 mM in 30 μL saline). After either 24 hours (center) or 168 hours (right), those rats were then injected I.V. with ^18F-537-Tz (22-30 MBq; […]; 0.2 nmol). Rats were imaged by PET-CT from 75-90 min. post-injection of radiotracer. Control rats (left) received saline only.
FIG. 5 is a bar graph showing Regions of Interest (ROI) drawn from the PET data. Ratios were obtained of % ID/g in tissue of interest (brain and spine) to the reference region (heart). […] Lanes in bar graph depicted from left to right: ASO-TCO (brain:heart); Naive (brain:heart); ASO-TCO (spine:heart); and Naive (spine:heart).
Rats were administered Malat1 ASO-TCO intrathecally (I.T.) and 24 hours later were given ^18F-Tz intravenously (I.V.). They were then imaged 75-90 p.i. by PET/CT.
The same uptake is not seen in rats that received only the ^18F-Tz radiotracer.

[7] = design: species or system mice; conditions: mouse, in vivo, 10 min
Text: as §1

[8] = Dynamic PET scans of brain, baseline, homologous block and pretargeted; type: in vivo, rat
Procedure: as §2
Time-activity-curves (TAC) from 0 to 60 min showing the brain subregion distribution of ^18F-537-Tz in rat 2 at baseline and following iv administration of 1 mg/kg of unlabeled […] are illustrated in FIG. 9. […] The average brain regional SUV from 40-60 min of the scans were similar in the baseline and homologous block scans (Table 1).
PET/CT images with summed radioactivity from 0 to 60 min showing the brain distribution of ^18F-537-Tz in the 4 rats scanned at baseline and the 3 rats scanned 24 h after i.t. administration of ASO-TCO are illustrated in FIG. 10. There was an increase in brain uptake of radioactivity observed in all the ASO-TCO dosed rats. There was an increase of ca. […]

[9] = baseline vs post ASO-TCO dosed rats
[10] = rats, Baseline group, ca. 70-80 min after tracer injection
[11] = rats treated with ASO-TCO vs control rats that received only tracer, P<0.005
[12] = rat Subject 2, Baseline scan, 40-60 min p.i. of tracer
[13] = rat Subject 2, Postdose (homologous block, 1 mg/kg non-radioactive compound i.v. 5 min before tracer), 40-60 min p.i.
[14] = rats, Baseline group (no ASO-TCO), 40-60 min p.i. of tracer

O=C(Cc1ccc(-c2nncnn2)cc1)NCC[18F] [Compound 1]
half-life (Microsome stability): 1.4 h
increase in radioactivity uptake in the CSF [1, 9]: 15%
increase in radioactivity uptake in the spine [1, 9]: 10%
Radioactivity uptake CSF [1, 10]: 1.18
Radioactivity uptake Spine [1, 10]: 0.95
Radioactivity uptake Spine ([1]; rats, Pretargeted group (i.t. dosing of ASO-TCO), ca. 70-80 min after tracer injection): 1.04
% Change of radioactivity uptake CSF ([1]; rats, Pretargeted vs Baseline): 16%
% Change of radioactivity uptake Spine ([1]; rats, Pretargeted vs Baseline): 9%
fraction unbound [2]: 0.375
parent compound fraction of total activity in plasma ([3]; 5 min): 82%
parent compound fraction of total activity in plasma ([3]; 60 min): 62%
Parent fraction, tracer intact ([4]; cynomolgus monkey arterial plasma, over the course of imaging): > 80%
Blood kinetics of the tracer ([4]; cynomolgus monkey, over 30 min): uptake and rapid clearance
uptake of the tracer in the brain, baseline PET/CT ([5]; 2-hour scan): good uptake
SUV uptake, baseline vs post-ASO scans (whole brain ROI) ([5]; 24 h and 7 days after Malat1 ASO-TCO i.t.): No significant different
difference in SUV between baseline and pretargeted scans in the brain ([5]; normalized TACs, final timepoint): ~10%
uptake of tracer in brain and spinal cord (PET/CT images) ([6]; rats given Malat1 ASO-TCO I.T. 24 hours before tracer I.V., imaged 75-90 p.i.): specific uptake
Brain-to-heart ratio from ROIs [6, 11]: significantly higher
spine-to-heart ratio from ROIs [6, 11]: significantly higher
brain uptake [7]: 1.7±0.9 % ID
SUV Plasma (40-60 min) ([8]; rat Subject 2, Baseline scan): 1.12
SUV Brain [8, 12]: 1.29
SUV Cerebellum [8, 12]: 1.38
SUV Cortex [8, 12]: 1.07
SUV Frontal Cortex [8, 12]: 1.16
SUV Hippocampus [8, 12]: 1.28
SUV Hypothalamus [8, 12]: 1.45
SUV Thalamus [8, 12]: 1.46
SUV Plasma (40-60 min) ([8]; rat Subject 2, Postdose (homologous block, 1 mg/kg non-radioactive compound i.v. 5 min before tracer)): 1.45
SUV Brain [8, 13]: 1.22
SUV Cerebellum [8, 13]: 1.38
SUV Cortex [8, 13]: 1.10
SUV Frontal Cortex [8, 13]: 1.24
SUV Striatum [8, 13]: 1.40
SUV Thalamus [8, 13]: 1.52
SUV Hippocampus ([8]; rat, in vivo): 1.43
SUV Striatum ([8]; rat, in vivo): 1.42
SUV Hippocampus ([8]; rat, in vivo, iv, 1 mg/kg): 1.27
SUV Hypothalamus ([8]; rat, in vivo, iv, 1 mg/kg): 1.43
SUV Cerebellum [8, 14]: 1.52
SUV Cortex [8, 14]: 1.25
SUV Frontal Cortex [8, 14]: 1.33
SUV Hypothalamus [8, 14]: 1.62
SUV Plasma [8, 14]: 1.22
SUV Striatum [8, 14]: 1.52
SUV Thalamus [8, 14]: 1.64
